# Source: paper PMC11258351, “PK/PD investigation of antiviral host matriptase/TMPRSS2 inhibitors in cell models” (Scientific Reports, 2024)
# Entries after “also recorded” stand apart in the source; their conditions may differ.
# What was measured:
# SARS-CoV-2 = tested on: SARS-CoV-2; parameters: method as in PMID 32703818; settings: Calu-3 cells, 50 μM, 24 h p.i.; cited from earlier work
# Calu-3 cells = tested on: Calu-3 cells; parameters: method as in PMID 32703818; settings: 50 μM; cited from earlier work
# H1N1 IAV = tested on: H1N1 IAV; parameters: method as in PMID 23527573; settings: Calu-3 cells; cited from earlier work
# H3N2 IAV = tested on: H3N2 IAV; parameters: method as in PMID 23527573; settings: Calu-3 cells; cited from earlier work
# [1] = Prediction of in vivo human PK parameters from hepatocyte clearance; type: in vitro ADME; settings: for Classification (extraction type) / Extraction ratio EH: predicted; for Predicted Cl, CLH: predicted from hepatocyte Clint, fu = 1
# [2] = tested on: H9N2 IAV strain A/quail/Shantou/782/00; type: cell-based, influenza A virus; settings: MDCK-II cells, MOI 0.01, 50 µM, 24 h
# α-1 acidic glycoprotein = tested on: α-1 acidic glycoprotein; parameters: method as in PMID 37865989; settings: cited from earlier work
# [3] = tested on: cynomolgus monkey hepatocytes; parameters: method as in PMID 31391268; settings: cited from earlier work
# CYP1A2 = target: T1, CYP1A2 (Homo sapiens, UniProt P05177); experiment: Fluorometric CYP1A2 activity assay in human hepatic microsomes; settings: human liver microsomes, protease inhibitors at 50 µM, 15 min 37 °C
# T1 sequence (P05177 1-516): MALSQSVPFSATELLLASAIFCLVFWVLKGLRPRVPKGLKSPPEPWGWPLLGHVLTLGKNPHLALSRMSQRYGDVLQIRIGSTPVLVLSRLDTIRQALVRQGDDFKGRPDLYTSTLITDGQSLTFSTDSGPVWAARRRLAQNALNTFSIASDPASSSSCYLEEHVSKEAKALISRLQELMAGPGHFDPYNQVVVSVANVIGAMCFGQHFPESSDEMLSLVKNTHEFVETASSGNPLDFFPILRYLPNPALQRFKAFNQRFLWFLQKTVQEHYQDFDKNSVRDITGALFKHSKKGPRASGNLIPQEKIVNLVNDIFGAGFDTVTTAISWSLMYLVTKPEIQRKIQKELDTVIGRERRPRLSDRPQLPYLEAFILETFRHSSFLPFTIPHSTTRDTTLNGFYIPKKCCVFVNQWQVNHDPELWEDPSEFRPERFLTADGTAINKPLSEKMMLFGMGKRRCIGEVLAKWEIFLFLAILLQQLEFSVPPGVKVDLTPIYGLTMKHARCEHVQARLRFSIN
# CYP2C9 = CYP2C9 (Homo sapiens, UniProt P11712); experiment: Fluorometric CYP2C9 activity assay in human hepatic microsomes; settings: human liver microsomes, protease inhibitors at 50 µM, 15 min 37 °C
# Sequence of CYP2C9 (P11712 whole entry): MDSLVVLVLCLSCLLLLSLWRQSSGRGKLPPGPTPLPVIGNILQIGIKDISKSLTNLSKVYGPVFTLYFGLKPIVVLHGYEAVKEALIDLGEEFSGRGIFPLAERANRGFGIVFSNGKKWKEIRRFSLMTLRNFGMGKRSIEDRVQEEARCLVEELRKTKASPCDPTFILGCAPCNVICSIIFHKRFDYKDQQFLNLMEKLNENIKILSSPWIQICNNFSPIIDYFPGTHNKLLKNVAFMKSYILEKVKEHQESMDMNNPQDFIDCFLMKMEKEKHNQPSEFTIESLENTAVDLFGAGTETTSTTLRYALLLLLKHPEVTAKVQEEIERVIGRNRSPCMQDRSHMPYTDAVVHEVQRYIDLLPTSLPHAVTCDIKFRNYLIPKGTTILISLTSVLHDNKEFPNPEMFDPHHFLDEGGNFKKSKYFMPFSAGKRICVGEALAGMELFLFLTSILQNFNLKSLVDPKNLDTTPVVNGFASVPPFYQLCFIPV
# CYP2D6 = CYP2D6 (Homo sapiens, UniProt P10635); experiment: Fluorometric CYP2D6 activity assay in human hepatic microsomes; settings: human liver microsomes, protease inhibitors at 50 µM, 15 min 37 °C
# Sequence of CYP2D6 (P10635 whole entry): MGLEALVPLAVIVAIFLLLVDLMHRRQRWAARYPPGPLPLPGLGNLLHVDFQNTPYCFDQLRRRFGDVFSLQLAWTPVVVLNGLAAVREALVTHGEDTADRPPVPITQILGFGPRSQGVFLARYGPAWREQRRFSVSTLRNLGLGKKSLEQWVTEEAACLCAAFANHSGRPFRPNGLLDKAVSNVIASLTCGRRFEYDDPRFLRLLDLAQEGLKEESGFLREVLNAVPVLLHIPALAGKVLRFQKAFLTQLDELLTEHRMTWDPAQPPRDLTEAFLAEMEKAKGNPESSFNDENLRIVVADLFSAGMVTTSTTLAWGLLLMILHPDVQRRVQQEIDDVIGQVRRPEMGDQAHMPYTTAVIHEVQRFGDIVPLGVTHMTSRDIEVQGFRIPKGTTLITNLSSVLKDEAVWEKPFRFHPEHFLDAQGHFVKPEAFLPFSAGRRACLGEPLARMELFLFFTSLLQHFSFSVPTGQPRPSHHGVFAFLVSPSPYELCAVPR
# CYP3A4 = CYP3A4 (Homo sapiens, UniProt P08684); experiment: Fluorometric CYP3A4 activity assay in human hepatic microsomes; settings: human liver microsomes, 10, 25 and 50 µM
# Sequence of CYP3A4 (P08684 whole entry): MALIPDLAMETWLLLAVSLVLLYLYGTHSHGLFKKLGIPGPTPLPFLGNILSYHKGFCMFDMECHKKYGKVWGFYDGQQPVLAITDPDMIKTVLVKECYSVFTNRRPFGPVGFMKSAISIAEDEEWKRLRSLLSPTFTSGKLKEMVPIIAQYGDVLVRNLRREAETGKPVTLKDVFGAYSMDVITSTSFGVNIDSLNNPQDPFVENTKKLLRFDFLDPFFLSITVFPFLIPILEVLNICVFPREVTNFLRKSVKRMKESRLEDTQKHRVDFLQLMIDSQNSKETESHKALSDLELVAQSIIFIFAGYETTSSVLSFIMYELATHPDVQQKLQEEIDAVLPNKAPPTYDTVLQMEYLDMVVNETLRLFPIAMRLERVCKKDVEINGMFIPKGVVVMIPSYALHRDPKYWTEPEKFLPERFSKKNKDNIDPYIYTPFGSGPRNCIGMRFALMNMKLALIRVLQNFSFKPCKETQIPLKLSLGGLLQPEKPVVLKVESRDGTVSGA
# CYP2C19 = CYP2C19 (Homo sapiens, UniProt P33261); experiment: Fluorometric CYP2C19 activity assay in human hepatic microsomes; settings: human liver microsomes, protease inhibitors at 50 µM, 15 min 37 °C
# Sequence of CYP2C19 (P33261 whole entry): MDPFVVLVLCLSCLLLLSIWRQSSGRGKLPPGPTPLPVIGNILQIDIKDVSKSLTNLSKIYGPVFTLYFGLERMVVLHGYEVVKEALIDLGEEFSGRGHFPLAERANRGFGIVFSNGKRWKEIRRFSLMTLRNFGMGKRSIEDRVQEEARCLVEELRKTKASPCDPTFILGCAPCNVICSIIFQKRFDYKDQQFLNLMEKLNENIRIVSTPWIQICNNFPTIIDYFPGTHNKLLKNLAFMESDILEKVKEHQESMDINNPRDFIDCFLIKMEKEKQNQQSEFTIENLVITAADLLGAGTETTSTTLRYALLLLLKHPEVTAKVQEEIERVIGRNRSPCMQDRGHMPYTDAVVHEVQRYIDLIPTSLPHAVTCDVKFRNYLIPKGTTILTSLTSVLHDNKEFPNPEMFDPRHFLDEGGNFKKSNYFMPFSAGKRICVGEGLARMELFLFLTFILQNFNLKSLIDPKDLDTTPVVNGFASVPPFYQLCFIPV
# [4] = Depletion of inhibitors in human primary hepatocyte suspension (LC-MS/MS); settings: human, cryopreserved primary human hepatocytes in suspension; for CLint scaled at 10 µM: intrinsic clearance from primary human hepatocytes scaled to whole liver/body weight
# [5] = tested on: human primary hepatocytes; experiment: as above; settings: primary human hepatocytes, 10 µM; for Parent compound retained at the 120-min sampling point: % of 0-min concentration, mean ± S.E.M.; for Sampling interval at which significant depletion was first observed: sampling 0-120 min
# H1N1 PR8 = tested on: H1N1 PR8; parameters: method as in PMID 23365447; settings: Calu-3 cells; cited from earlier work
# [6] = tested on: primary human hepatocytes; settings: 50 μM; cited from earlier work
Structure (SMILES),Classification (extraction type) [1],Extraction ratio EH [1],"Predicted Cl, CLH [1]",Inhibition of CYP1A2 activity (CYP1A2),Inhibition of CYP2C9 activity (CYP2C9),Inhibition of CYP2D6 activity (CYP2D6),Effect on CYP3A4 enzyme activity (CYP3A4),Inhibition of CYP2C19 activity (CYP2C19),half-life at 10 µM [4] [h],CLint scaled at 10 µM [4] [mL/min/kg],Parent compound retained at the 120-min sampling point [5] [%],Sampling interval at which significant depletion was first observed [5] [min],further results
"N=C(N)c1cccc(C[C@H](NS(=O)(=O)c2cccc(-c3ccc(Cl)cc3Cl)c2)C(=O)N2CCC(CCN)CC2)c1.O=C(O)C(F)(F)F.O=C(O)C(F)(F)F [MI-432, reference compound]",–,–,–,–,–,–,–,–,–,–,–,–,Reduction of SARS-CoV-2 viral titers compared to control samples (SARS-CoV-2): 75 fold; Influence on Calu-3 cell viability (Calu-3 cells): without influencing Calu-3 cell viabilitiy significantly; Inhibition of proteolytic activation and replication of H1N1 IAV (H1N1 IAV): notable efficacy; Inhibition of proteolytic activation and replication of H3N2 IAV (H3N2 IAV): notable efficacy
COc1ccc(-c2cccc(S(=O)(=O)N[C@@H](Cc3cccc(C(=N)N)c3)C(=O)N3CCC(N)CC3)c2)c(OC)c1 [MI-472],Intermediate,0.36,7.40,No significant CYP inhibitory potential,No significant CYP inhibitory potential,No significant CYP inhibitory potential,significant inhibitory effect,No significant CYP inhibitory potential,3.84,19.8,65.1 ± 5.5,30,H9N2 viral spread / formation of viral foci [2]: only slightly reduced formation of viral foci; Interaction with α-1 acidic glycoprotein (α-1 acidic glycoprotein): complex formation; Treatment time after which significant conversion was seen [3]: 60 to 120 min
N=C(N)c1cccc(C[C@H](NS(=O)(=O)c2cccc(NC(=O)CCN)c2)C(=O)N2CCC(CCN)CC2)c1 [MI-21],Intermediate,0.53,10.92,No significant CYP inhibitory potential,No significant CYP inhibitory potential,No significant CYP inhibitory potential,did not cause significant reduction; also recorded: did not significantly suppress,No significant CYP inhibitory potential,0.52,147,16.6 ± 1.6,30,Inhibition of replication of H1N1 PR8 (H1N1 PR8): promising inhibition; Cell toxicity [6]: no cell toxicity
